Experimental findings from US10316028B2, “Orexin receptor antagonists” (Heptares Therapeutics Limited, priority 2012, dated 2019) are described below.

Structures are written as SMILES.

This experiment concerns the target T1, human Orexin-2 receptor (Homo sapiens, UniProt O43614).
T1 construct: expressed in transfected cells; host or cells: HEK293 cells (transient transfection, Genejuice); membranes
T1 sequence (O43614 1-444): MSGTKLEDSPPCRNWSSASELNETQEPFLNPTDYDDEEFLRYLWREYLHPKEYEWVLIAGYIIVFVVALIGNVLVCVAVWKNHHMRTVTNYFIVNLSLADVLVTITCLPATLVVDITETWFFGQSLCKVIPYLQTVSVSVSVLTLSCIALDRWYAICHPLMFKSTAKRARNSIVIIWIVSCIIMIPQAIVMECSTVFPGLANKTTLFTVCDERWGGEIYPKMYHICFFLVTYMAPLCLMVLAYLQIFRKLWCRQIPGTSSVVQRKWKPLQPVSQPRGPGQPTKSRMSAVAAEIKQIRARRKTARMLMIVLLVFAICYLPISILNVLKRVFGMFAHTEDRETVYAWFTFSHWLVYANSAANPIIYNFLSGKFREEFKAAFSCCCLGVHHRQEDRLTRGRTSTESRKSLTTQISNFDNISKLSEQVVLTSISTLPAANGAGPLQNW
Put plainly: 3H-EMPA radioligand binding assay. The note with it: 3H-EMPA displacement, membranes of HEK293 cells transfected with human Orexin-2 receptor; KI by Cheng-Prussoff; read-out: OX2 pKi ave (converted). How it is done: cDNA encoding the human Orexin-2 receptor was transfected into HEK293 cells using the transfection reagent Genejuice (Novagen). Forty-eight hours after transfection, cells were harvested and washed twice with ice cold phosphate-buffered saline. The pellet was resuspended in ice-cold buffer containing 20 mM Tris-HCl, pH 7.4, 1 mM EDTA and homogenised with an Ultraturax for 30 s at maximum speed. After centrifugation at 48,000 g for 30 min at 4° C., the pellet was resuspended and spun again. The final pellet was resuspended and frozen at −80° C. before use. Protein concentration was determined using the BCA protein assay method.
^3H-EMPA Radioligand Binding Assay
At the end of the incubation, membranes were filtered onto a unifilter, a 96-well white microplate with bonded GF/B filter pre-incubated with 0.5% polyethylenimine, with a Tomtec cell harvester and washed 4 times with distilled water. […] Radioactivity on the filter was counted (1 min) on a microbeta counter after addition of 50 µL of scintillation fluid. […] IC50 values were derived from the inhibition curve and the equilibrium dissociation constant (KI) values were calculated using the Cheng-Prussoff equation.
Consider `Cc1ccc(C)c(N2C(=O)N(Cc3c(F)cccc3Cl)c3ccccc3S2(=O)=O)c1` [Example 32, 4-(2-chloro-6-fluorobenzyl)-2-(2,5-dimethylphenyl)-2H-1,2,4-benzothiadiazin-3(4H)-one 1,1-dioxide], for which the Ki is 28.2 nM.

As to `CCc1ccccc1N1C(=O)N(Cc2c(F)cccc2Cl)c2ccccc2S1(=O)=O` [Example 33, 4-(2-chloro-6-fluorobenzyl)-2-(2-ethylphenyl)-2H-1,2,4-benzothiadiazin-3(4H)-one 1,1-dioxide], the Ki was 28.2 nM.

As for `Cc1ccc(N2C(=O)N(Cc3c(F)cccc3Cl)c3ccccc3S2(=O)=O)cc1C` [Example 34, 4-(2-chloro-6-nuorobenzyl)-2-(3,4-dimethylphenyl)-2H-1,2,4-benzothiadiazin-3(4H)-one 1,1-dioxide], the Ki is 1.12 nM.

As to `COc1ccccc1N1C(=O)N(Cc2c(F)cccc2Cl)c2ccccc2S1(=O)=O` [Example 35, 4-(2-chloro-6-fluorobenzyl)-2-(2-methoxyphenyl)-2H-1,2,4-benzothiadiazin-3(4H)-one 1,1-dioxide], the Ki was 31.6 nM.

As for `COc1cccc(N2C(=O)N(Cc3c(F)cccc3Cl)c3ccccc3S2(=O)=O)c1` [Example 36, 4-(2-chloro-6-fluorobenzyl)-2-(3-methoxyphenyl)-2H-1,2,4-benzothiadiazin-3(4H)-one 1,1-dioxide], the Ki is 15.8 nM.

`CCc1ccc(N2C(=O)N(Cc3c(F)cccc3Cl)c3ccccc3S2(=O)=O)cc1` [Example 37, 4-(2-chloro-6-fluorobenzyl)-2-(4-ethylphenyl)-2H-1,2,4-benzothiadiazin-3(4H)-one 1,1-dioxide]: the Ki was 5.01 nM.

For `Cc1cccc(N2C(=O)N(Cc3c(F)cccc3Cl)c3ccccc3S2(=O)=O)c1C` [Example 38, 4-(2-chloro-6-fluorobenzyl)-2-(2,3-dimethylphenyl)-2H-1,2,4-benzothiadiazin-3(4H)-one 1,1-dioxide], the Ki is 15.8 nM.

Regarding `O=C1N(Cc2c(F)cccc2Cl)c2ccccc2S(=O)(=O)N1Cc1ccc(F)cc1` [Example 39, 4-(2-chloro-6-fluorobenzyl)-2-(4-fluorobenzyl)-2H-1,2,4-benzothiadiazin-3(4H)-one 1,1-dioxide], the Ki was 20 nM.

For `O=C1N(Cc2c(F)cccc2Cl)c2ccccc2S(=O)(=O)N1Cc1ccccc1` [Example 40, 2-benzyl-4-(2-chloro-6-fluorobenzyl)-2H-1,2,4-benzothiadiazin-3(4H)-one 1,1-dioxide], the Ki is 26.3 nM.

Turning to `Cc1ccc(Cl)cc1N1C(=O)N(Cc2c(F)cccc2Cl)c2ccccc2S1(=O)=O` [Example 41, 4-(2-chloro-6-fluorobenzyl)-2-(5-chloro-2-methylphenyl)-2H-1,2,4-benzothiadiazin-3(4H)-one 1,1-dioxide], the Ki is 25.1 nM.

Turning to `O=C1N(Cc2c(F)cccc2Cl)c2ccccc2S(=O)(=O)N1c1cccc(Cl)c1` [Example 42, 4-(2-chloro-6-fluorobenzyl)-2-(3-chlorophenyl)-2H-1,2,4-benzothiadiazin-3(4H)-one 1,1-dioxide], the Ki was 14.1 nM.

On to `Cc1ccc(N2C(=O)N(Cc3c(F)cccc3Cl)c3ccccc3S2(=O)=O)cc1F` [Example 43, 4-(2-chloro-6-fluorobenzyl)-2-(3-fluoro-4-methylphenyl)-2H-1,2,4-benzothiadiazin-3(4H)-one 1,1-dioxide], for which the Ki was 4.68 nM.

Turning to `O=C1N(Cc2c(F)cccc2Cl)c2ccccc2S(=O)(=O)N1c1ccc(F)cc1` [Example 44, 4-(2-chloro-6-fluorobenzyl)-2-(4-fluorophenyl)-2H-1,2,4-benzothiadiazin-3(4H)-one 1,1-dioxide], the Ki is 31.6 nM.

As to `Cc1ccc(N2C(=O)N(Cc3c(F)cccc3Cl)c3ccccc3S2(=O)=O)c(C)c1` [Example 45, 4-(2-chloro-6-fluorobenzyl)-2-(2,4-dimethylphenyl)-2H-1,2,4-benzothiadiazin-3(4H)-one 1,1-dioxide], the Ki is 16.6 nM.
